According to patent US20210161902A1, “EPICHAPEROME INHIBITOR THERAPY FOR TRAUMATIC BRAIN INJURY AND SEQUELAE THEREOF” (Samus Therapeutics, Inc, priority 2017, published 2021):

Molecular target: Hsp90 such as brain Hsp90
Test: EC50 for binding to Hsp90 such as brain Hsp90
Conditions: concentration yielding half-maximal binding to Hsp90 such as brain Hsp90, or halving binding in a competition assay
Source text: Brain uptake may be indicative of binding of the epichaperome inhibitor to Hsp90 and preferably to brain Hsp90. Such binding assays may be carried out as described in published PCT application WO2008/005937.
BBB-permeable epichaperome inhibitors to be used in the methods provided herein may be further characterized by their EC50 for binding to Hsp90 such as brain Hsp90. (EC50, in this context, refers to the concentration of the inhibitor that yields half-maximal binding of the inhibitor to Hsp90 such as brain Hsp90, or alternatively if the measurement is performed in a competition assay it is the concentration of inhibitor at which the binding to Hsp90 is reduced by half.) Certain inhibitors may have an EC50 of 100 nM or less, including about 90 nM, about 80 nM, about 85 nM, about 70 nM, about 60 nM, about 50 nM, about 40 nM, about 30 nM, about 20 nM, about 10 nM, about 9 nM, about 8 nM, about 7 nM, about 6 nM, about 5 nM, about 4 nM, about 3 nM, about 2 nM, or about 1 nM. The EC50 might range from 0.1 to 10 nM, from 0.1 to 9 nM, from 0.1 to 8 nM, from 0.1 to 7 nM, from 0.1 to 6 nM, or from 0.1 to 5 nM. The EC50 might range from 0.1 to 20 nM, from 0.1 to 18 nM, from 0.1 to 15 nM, from 0.1 to 12 nM, or from 0.1 to 10 nM. In some instances, certain inhibitors have an EC50 of about 5-7 nM. […] In other instances, certain inhibitors have an EC50 of about 80-90 nM.

EC50: 6.9 nM
SMILES: CC(C)(C)CNCCn1c(Sc2cc3c(cc2I)OCO3)nc2c(N)ncnc21 [Compound 1]
